Test results as given in PubChem BioAssay (NCI).
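Results reflect a 48-hour exposure of cells in 96-well plates to compound at five concentrations. GI50: concentration for 50% inhibition of growth. TGI: total growth inhibition.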 Where a SMILES comes first, the peptide text is derived from it. The star is where a group is joined. Fmoc = O=C(OCC1c2ccccc2-c2ccccc21)*; OBn = c1ccc(CO*)cc1; tBu = CC(C)(C)*

Experiments:
Assay in all cases: DTP human tumour cell line panel, 48 h
A498 renal = tested on: A498 renal
ACHN renal = tested on: ACHN renal
HL-60(TB) leukemia = tested on: HL-60(TB) leukemia
HS 578T breast = tested on: HS 578T breast
IGROV1 ovarian = tested on: IGROV1 ovarian
LOX IMVI melanoma = tested on: LOX IMVI melanoma
NCI-H460 lung = tested on: NCI-H460 lung
OVCAR-8 ovarian = tested on: OVCAR-8 ovarian
SK-MEL-28 melanoma = tested on: SK-MEL-28 melanoma
UACC-257 melanoma = tested on: UACC-257 melanoma

## CN(CC(=O)O)c1ncc2c(n1)-c1ccccc1CC2
A498 renal
  TGI: > 100 µM
ACHN renal
  TGI: > 100 µM
HL-60(TB) leukemia
  TGI: > 100 µM
HS 578T breast
  TGI: > 100 µM
IGROV1 ovarian
  TGI: > 100 µM
LOX IMVI melanoma
  TGI: > 100 µM
NCI-H460 lung
  TGI: > 100 µM
OVCAR-8 ovarian
  TGI: > 100 µM
SK-MEL-28 melanoma
  TGI: > 100 µM
UACC-257 melanoma
  TGI: > 100 µM

## CCCCCCCC(=O)OC[n+]1cccc(-c2c(COC(=O)NC(C)C)c(COC(=O)NC(C)C)c3n2CCC3)c1
A498 renal
  TGI: > 89.4 µM
ACHN renal
  TGI: > 100 µM
HL-60(TB) leukemia
  TGI: > 82.1 µM
HS 578T breast
  TGI: > 100 µM
IGROV1 ovarian
  TGI: > 100 µM
LOX IMVI melanoma
  TGI: > 100 µM
NCI-H460 lung
  TGI: > 100 µM
OVCAR-8 ovarian
  TGI: > 100 µM
SK-MEL-28 melanoma
  TGI: > 100 µM
UACC-257 melanoma
  TGI: > 100 µM

## O=[N+]([O-])/C=C/c1cn(CCCCCCCCn2cc(/C=C/[N+](=O)[O-])c3ccccc32)c2ccccc12
A498 renal
  TGI: > 10 µM
ACHN renal
  TGI: > 10 µM
HL-60(TB) leukemia
  TGI: > 10 µM
HS 578T breast
  TGI: > 10 µM
IGROV1 ovarian
  TGI: > 10 µM
LOX IMVI melanoma
  TGI: > 10 µM
NCI-H460 lung
  TGI: > 10 µM
OVCAR-8 ovarian
  TGI: > 10 µM
SK-MEL-28 melanoma
  TGI: > 10 µM
UACC-257 melanoma
  TGI: > 10 µM

## COc1ccc(C=C2C(C)=NN(c3cccc(Cl)c3)C23C(Cl)C(=O)N3c2nc3ccccc3s2)cc1 (stereo not given)
A498 renal
  TGI: 34.8 µM
ACHN renal
  TGI: 51.6 µM
HL-60(TB) leukemia
  TGI: 6.62 µM
HS 578T breast
  TGI: 74.1 µM
IGROV1 ovarian
  TGI: 40.1 µM
LOX IMVI melanoma
  TGI: 38.5 µM
NCI-H460 lung
  TGI: 66.6 µM
OVCAR-8 ovarian
  TGI: 42 µM
SK-MEL-28 melanoma
  TGI: 23.9 µM
UACC-257 melanoma
  TGI: 72.3 µM

## CC(OC(C)(C)C)C(NC(=O)OCC1c2ccccc2-c2ccccc21)C(=O)NC(Cc1ccccc1)C(=O)OCc1ccccc1 (stereo not given) (Fmoc-Thr(tBu)-Phe-OBn; configuration not given here)
A498 renal
  TGI: > 100 µM
ACHN renal
  TGI: > 100 µM
HL-60(TB) leukemia
  TGI: > 100 µM
HS 578T breast
  TGI: > 100 µM
IGROV1 ovarian
  TGI: > 100 µM
LOX IMVI melanoma
  TGI: > 100 µM
NCI-H460 lung
  TGI: > 100 µM
OVCAR-8 ovarian
  TGI: > 100 µM
SK-MEL-28 melanoma
  TGI: > 100 µM
UACC-257 melanoma
  TGI: > 100 µM

## CCn1c(-c2cc3ccccc3cc2OC(C)=O)n[nH]c1=S
A498 renal
  TGI: 84.8 µM
ACHN renal
  TGI: > 100 µM
HL-60(TB) leukemia
  TGI: 19.5 µM
HS 578T breast
  TGI: 54.6 µM
IGROV1 ovarian
  TGI: > 100 µM
LOX IMVI melanoma
  TGI: > 100 µM
NCI-H460 lung
  TGI: 69.8 µM
OVCAR-8 ovarian
  TGI: > 100 µM
SK-MEL-28 melanoma
  TGI: > 100 µM
UACC-257 melanoma
  TGI: 62.6 µM

## CCOC(=O)NC(Nc1ccc(C(=O)O)cc1)(C(F)(F)F)C(F)(F)F
A498 renal
  TGI: > 100 µM
ACHN renal
  TGI: > 100 µM
HL-60(TB) leukemia
  TGI: > 100 µM
HS 578T breast
  TGI: > 100 µM
IGROV1 ovarian
  TGI: > 100 µM
LOX IMVI melanoma
  TGI: > 100 µM
NCI-H460 lung
  TGI: > 100 µM
OVCAR-8 ovarian
  TGI: > 100 µM
SK-MEL-28 melanoma
  TGI: > 100 µM
UACC-257 melanoma
  TGI: > 100 µM

## CCOC(=O)CC1(N)CC2c3ccccc3OC(=O)C2C(=O)N1 (stereo not given)
A498 renal
  TGI: > 100 µM
ACHN renal
  TGI: > 100 µM
HL-60(TB) leukemia
  TGI: > 100 µM
HS 578T breast
  TGI: > 100 µM
IGROV1 ovarian
  TGI: > 100 µM
LOX IMVI melanoma
  TGI: > 100 µM
NCI-H460 lung
  TGI: > 100 µM
OVCAR-8 ovarian
  TGI: > 100 µM
SK-MEL-28 melanoma
  TGI: > 100 µM
UACC-257 melanoma
  TGI: > 100 µM

## COc1ccc(C2CC(c3cccc(Nc4ccncc4)c3)=NN2c2ccccc2)cc1 (stereo not given)
A498 renal
  GI50: 1.41 µM
  TGI: 9.69 µM
ACHN renal
  GI50: 1.81 µM
  TGI: 3.28 µM
HL-60(TB) leukemia
  GI50: 2 µM
  TGI: 4.06 µM
HS 578T breast
  GI50: 1.82 µM
  TGI: 3.87 µM
IGROV1 ovarian
  GI50: 1.81 µM
  TGI: 3.51 µM
LOX IMVI melanoma
  GI50: 1.74 µM
  TGI: 3.11 µM
NCI-H460 lung
  GI50: 1.8 µM
  TGI: 3.34 µM
OVCAR-8 ovarian
  GI50: 2.19 µM
  TGI: 4.77 µM
SK-MEL-28 melanoma
  GI50: 1.69 µM
  TGI: 3.24 µM
UACC-257 melanoma
  GI50: 2 µM
  TGI: 4.17 µM

## O=C(Nc1nnc(-c2ccccc2)o1)C(SC(=S)N1CCCC1)c1ccccc1 (stereo not given)
A498 renal
  TGI: 81.6 µM
ACHN renal
  TGI: > 100 µM
HL-60(TB) leukemia
  TGI: 48.1 µM
HS 578T breast
  TGI: > 100 µM
IGROV1 ovarian
  TGI: > 100 µM
LOX IMVI melanoma
  TGI: 41.4 µM
NCI-H460 lung
  TGI: 62.3 µM
OVCAR-8 ovarian
  TGI: > 100 µM
SK-MEL-28 melanoma
  TGI: > 100 µM
UACC-257 melanoma
  TGI: > 100 µM

## CC1CC[C@@]2(OC1)OC1C[C@H]3[C@@H]4CC=C5C[C@@H](OC6OC(CO)C(OC7OC(CO)C(O)C(O)C7O)C(O)C6OC6OC(C)C(O)C(O)C6O)CC[C@]5(C)[C@H]4CC[C@]3(C)C1[C@@H]2C (stereo not given in full)
A498 renal
  TGI: 1.32 µM
ACHN renal
  TGI: 4.4 µM
HL-60(TB) leukemia
  TGI: 1.97 µM
HS 578T breast
  TGI: 1.57 µM
IGROV1 ovarian
  TGI: 1.02 µM
LOX IMVI melanoma
  TGI: 0.852 µM
NCI-H460 lung
  TGI: 1.76 µM
OVCAR-8 ovarian
  TGI: 1.79 µM
SK-MEL-28 melanoma
  TGI: 1.02 µM
UACC-257 melanoma
  TGI: 1.02 µM

## C[N+](C)([O-])C12CC3CC(CC(C3)C1)C2
A498 renal
  TGI: 67.7 µM
ACHN renal
  TGI: > 100 µM
HL-60(TB) leukemia
  TGI: > 100 µM
HS 578T breast
  TGI: > 100 µM
IGROV1 ovarian
  TGI: > 100 µM
LOX IMVI melanoma
  TGI: 63.8 µM
NCI-H460 lung
  TGI: > 100 µM
OVCAR-8 ovarian
  TGI: > 100 µM
SK-MEL-28 melanoma
  TGI: > 100 µM
UACC-257 melanoma
  TGI: > 100 µM

## CC(CSc1nc2c(c(=N)n1-c1ccccc1)c(=S)n(-c1ccccc1)c(=S)n2-c1ccccc1)CN(C)C (stereo not given)
A498 renal
  TGI: 6 µM
ACHN renal
  TGI: 3.15 µM
HL-60(TB) leukemia
  TGI: 2.37 µM
HS 578T breast
  TGI: > 28.7 µM
IGROV1 ovarian
  TGI: 2.79 µM
LOX IMVI melanoma
  TGI: 2.57 µM
NCI-H460 lung
  TGI: 4.14 µM
OVCAR-8 ovarian
  TGI: 3 µM
SK-MEL-28 melanoma
  TGI: 4.67 µM
UACC-257 melanoma
  TGI: 3.43 µM

## COC(=O)c1sc2c(Cl)c(Cl)sc2c1Cl
A498 renal
  TGI: > 100 µM
ACHN renal
  TGI: > 100 µM
HL-60(TB) leukemia
  TGI: > 100 µM
HS 578T breast
  TGI: > 100 µM
IGROV1 ovarian
  TGI: > 100 µM
LOX IMVI melanoma
  TGI: > 100 µM
NCI-H460 lung
  TGI: > 100 µM
OVCAR-8 ovarian
  TGI: > 100 µM
SK-MEL-28 melanoma
  TGI: > 100 µM
UACC-257 melanoma
  TGI: > 100 µM

## CC(=O)N1CN2C(=O)CCC2c2cc(C)ccc21 (stereo not given)
A498 renal
  TGI: > 100 µM
ACHN renal
  TGI: > 100 µM
HL-60(TB) leukemia
  TGI: > 100 µM
HS 578T breast
  TGI: > 100 µM
IGROV1 ovarian
  TGI: > 100 µM
LOX IMVI melanoma
  TGI: > 100 µM
NCI-H460 lung
  TGI: > 100 µM
OVCAR-8 ovarian
  TGI: > 100 µM
SK-MEL-28 melanoma
  TGI: > 100 µM
UACC-257 melanoma
  TGI: > 100 µM

## COc1ccc(Nc2nc(N)c(C(=O)c3ccco3)s2)cc1
A498 renal
  TGI: > 61.1 µM
ACHN renal
  TGI: > 100 µM
HL-60(TB) leukemia
  TGI: 17.7 µM
HS 578T breast
  TGI: > 100 µM
IGROV1 ovarian
  TGI: > 100 µM
LOX IMVI melanoma
  TGI: > 100 µM
NCI-H460 lung
  TGI: > 53.3 µM
OVCAR-8 ovarian
  TGI: > 100 µM
SK-MEL-28 melanoma
  TGI: > 100 µM
UACC-257 melanoma
  TGI: > 100 µM

## CC1CC(C)(C)CC(OCCN2CCCCC2)(c2ccccc2)C1 (stereo not given)
A498 renal
  TGI: 26.1 µM
ACHN renal
  TGI: 30.3 µM
HL-60(TB) leukemia
  TGI: 27.9 µM
HS 578T breast
  TGI: 32.4 µM
IGROV1 ovarian
  TGI: 27.3 µM
LOX IMVI melanoma
  TGI: 21.3 µM
NCI-H460 lung
  TGI: 17.5 µM
OVCAR-8 ovarian
  TGI: 30.3 µM
SK-MEL-28 melanoma
  TGI: 29.7 µM
UACC-257 melanoma
  TGI: 24.2 µM
